Assay results from patent US6710190B1, “3-heteroarylalkyl substituted gaba analogs” (Warner-Lambert Company, priority 1999, dated 2004).
Read-outs that look alike come from different tables or passages of the source. One block for each compound: values may come before it.

Legend:
[1] = system: carrageenan-induced thermal hyperalgesia in the rat; assay: Pain model: carrageenan-induced thermal hyperalgesia in the rat (plantar test); type: in vivo; conditions: for Pain Model % MPE 1 h: 1 h after oral administration; for Pain Model % MPE 2h: 2 h after oral administration
Description: Male Sprague-Dawley rats (180-250 g) were obtained from Bantin and Kingman, (Hull, U.K.). Animals were housed in groups of 6 to 10 under a 12 hour light/dark cycle (lights on at 7 hours, 0 minutes) with food and water ad libitum.
Thermal hyperalgesia was assessed using the rat plantar test (Ugo Basile, Italy) following a modified method of Hargreaves, et al., 1988. Rats were habituated to the apparatus which consisted of three individual perspex boxes on an elevated glass table. A mobile radiant heat source located under the table was focused onto the desired paw and paw withdrawal latencies (PWL) recorded. PWL were taken 3 times for both hind paws of each animal, the mean of which represented baselines for right and left hind paws. At least 5 minutes were allowed between each PWL for an animal. The apparatus was calibrated to give a PWL of approximately 10 seconds. There was an automatic cutoff point of 20 seconds to prevent tissue damage. After baseline PWLs were determined, animals received an intraplantar injection of carrageenan (100 μL of 20 mg/mL) into the right hind paw. PWLs were reassessed following the same protocol as above 2-hour post-carrageenan (this time point represented the start of peak hyperalgesia) to ascertain that hyperalgesia had developed. Test compounds were administered orally (in a volume of 1 mL/kg) at 2.5 hours after carrageenan. PWLs were reassessed at various times after drug administration.

[2] = system: sound-induced tonic seizures in DBA/2 mice; assay: DBA2 mouse model: prevention of audiogenic seizures in DBA/2 mice; type: in vivo; parameters: concentration or dose not given beside the values; conditions: for DBA2 Mouse Model % Protect (1h): 1h after oral dosing; for DBA2 Mouse Model % Protect (2h): 2h after oral dosing
Description: All procedures were carried out in compliance with the NIH Guide for the Care and Use of Laboratory Animals under a protocol approved by the Parke-Davis Animal Use Committee. Male DBA/2 mice, 3 to 4 weeks old, were obtained from Jackson Laboratories, Bar Harbour, Me. Immediately before anticonvulsant testing, mice were placed upon a wire mesh, 4 inches square suspended from a steel rod. The square was slowly inverted through 180 degrees and mice observed for 30 seconds. Any mouse falling from the wire mesh was scored as ataxic.
Mice were placed into an enclosed acrylic plastic chamber (21 cm height, approximately 30 cm diameter) with a high-frequency speaker (4 cm diameter) in the center of the top lid. An audio signal generator (Protek model B-180) was used to produce a continuous sinusoidal tone that was swept linearly in frequency between 8 kHz and 16 kHz once each 10 msec. The average sound pressure level (SPL) during stimulation was approximately 100 dB at the floor of the chamber. Mice were placed within the chamber and allowed to acclimatize for 1 minute. DBA/2 mice in the vehicle-treated group responded to the sound stimulus (applied until tonic extension occurred, or for a maximum of 60 seconds) with a characteristic seizure sequence consisting of wild running followed by clonic seizures, and later by tonic extension, and finally by respiratory arrest and death in 80% or more of the mice. In vehicle-treated mice, the entire sequence of seizures to respiratory arrest lasts approximately 15 to 20 seconds.
The incidence of all the seizure phases in the drug-treated and vehicle-treated mice was recorded, and the occurrence of tonic seizures were used for calculating anticonvulsant ED50 values by probit analysis. Mice were used only once for testing at each dose point. […] All drugs in the present study were dissolved in distilled water and given by oral gavage in a volume of 10 mL/kg of body weight. compounds that are insoluble will be suspended in 1% carboxymethocellulose. Doses are expressed as weight of the active drug moiety.

[3] = biological target: T1, α2δ subunit derived from porcine brain tissue (Sus scrofa, UniProt A0A287BIN3); assay: [3H]gabapentin radioligand binding assay (α2δ assay)
T1 construct: the α2δ subunit derived from porcine brain tissue was used; from tissue; host or cells: porcine brain tissue
T1 sequence (A0A287BIN3 25-1109): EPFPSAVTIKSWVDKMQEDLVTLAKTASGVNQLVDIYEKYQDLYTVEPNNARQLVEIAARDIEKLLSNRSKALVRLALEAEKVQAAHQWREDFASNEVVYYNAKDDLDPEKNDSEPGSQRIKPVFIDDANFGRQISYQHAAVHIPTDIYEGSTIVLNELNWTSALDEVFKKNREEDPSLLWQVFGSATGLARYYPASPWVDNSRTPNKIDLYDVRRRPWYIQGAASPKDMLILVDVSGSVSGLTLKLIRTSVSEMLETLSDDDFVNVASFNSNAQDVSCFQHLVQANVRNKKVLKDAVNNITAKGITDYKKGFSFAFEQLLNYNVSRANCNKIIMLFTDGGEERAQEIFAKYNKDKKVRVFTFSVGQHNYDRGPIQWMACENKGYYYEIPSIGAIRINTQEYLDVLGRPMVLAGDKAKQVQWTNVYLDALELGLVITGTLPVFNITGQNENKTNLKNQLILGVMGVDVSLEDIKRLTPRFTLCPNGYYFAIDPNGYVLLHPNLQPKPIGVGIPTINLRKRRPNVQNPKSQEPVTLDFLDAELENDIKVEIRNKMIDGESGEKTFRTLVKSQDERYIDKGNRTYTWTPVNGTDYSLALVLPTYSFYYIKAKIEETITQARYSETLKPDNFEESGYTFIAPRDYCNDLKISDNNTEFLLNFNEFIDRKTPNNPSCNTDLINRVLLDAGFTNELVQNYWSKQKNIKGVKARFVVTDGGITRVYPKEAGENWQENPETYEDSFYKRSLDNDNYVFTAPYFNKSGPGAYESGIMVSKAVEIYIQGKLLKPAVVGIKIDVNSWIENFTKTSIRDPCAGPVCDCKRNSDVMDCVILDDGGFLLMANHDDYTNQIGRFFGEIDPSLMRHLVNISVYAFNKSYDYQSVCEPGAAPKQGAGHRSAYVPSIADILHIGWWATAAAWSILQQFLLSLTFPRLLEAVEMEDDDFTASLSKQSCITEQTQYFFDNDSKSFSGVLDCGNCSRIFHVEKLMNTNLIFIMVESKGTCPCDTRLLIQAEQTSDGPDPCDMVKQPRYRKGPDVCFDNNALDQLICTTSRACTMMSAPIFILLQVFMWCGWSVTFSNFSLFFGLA

Structure (SMILES): NCC(CC(=O)O)Cc1ccco1 (stereo not shown)
Pain Model % MPE 1 h [1]: 61.6% | Pain Model % MPE 2h [1]: 24.9% | DBA2 Mouse Model % Protect (1h) [2]: 0% | DBA2 Mouse Model % Protect (2h) [2]: 20% | IC50 [3]: 421 nM

IC50 ([3]; read-out: α2δ Assay IC50): 831 nM
Structure (SMILES): NCC(CC(=O)O)Cc1ccsc1 (stereo not shown)
DBA2 Mouse Model % Protect (1h) [2]: 40% | DBA2 Mouse Model % Protect (2h) [2]: 60%

IC50 ([3]; read-out: α2δ Assay IC50): 2670 nM
Structure (SMILES): NCC(CC(=O)O)Cc1cccs1 (stereo not shown)
Pain Model % MPE 1 h [1]: 31.9% | Pain Model % MPE 2h [1]: 18.1% | DBA2 Mouse Model % Protect (1h) [2]: 20% | DBA2 Mouse Model % Protect (2h) [2]: 40%
